This note sets out measurements from ChEMBL document CHEMBL1141028, “Novel NGF-potentiating diterpenoids from a Brazilian medicinal plant, Ptychopetalum olacoides” (Bioorg Med Chem Lett, 2009).

Series [1] has as its system PC-12. Nature of the series: Enhancement of neurite length extending from cell bodies in NGF-mediated rat PC12 cells at 1 uM after 4 days. The format is functional.
Series [2] concerns PC-12. Nature of the series: Enhancement of neurite length extending from cell bodies in NGF-mediated rat PC12 cells at 0.1 uM after 4 days. The format is functional.
The subject of series [3] is PC-12. Nature of the series: Enhancement of neurite length extending from cell bodies in NGF-mediated rat PC12 cells at 10 uM after 4 days. It counts as functional.
In series [4] the test system is PC-12. Nature of the series: Enhancement of neurite length extending from cell bodies in NGF-mediated rat PC12 cells at 30 uM after 4 days. It counts as functional.
The subject of series [5] is PC-12. Nature of the series: Enhancement of NGF-induced neurite outgrowth in rat PC12 cells assessed as morphological changes after 4 days by phase-contrast microscopy. The format is functional, cell-based.
Series [6] concerns PC-12. In words: Enhancement of neurite length extending from cell bodies in NGF-mediated rat PC12 cells after 4 days relative to control. It counts as functional, cell-based.
For series [7], the system named is PC-12. In words: Enhancement of neurite length extending from cell bodies in NGF-mediated rat PC12 cells at 50 uM after 4 days. It counts as functional.
For series [8], the system named is PC-12. Nature of the series: Enhancement of neurite outgrowth in rat PC12 cells assessed as morphological changes after 4 days by phase-contrast microscopy in absence of NGF. It counts as functional, cell-based.
Series [9] concerns PC-12. Nature of the series: Enhancement of neurite length extending from cell bodies in NGF-mediated rat PC12 cells at 0.1 to 50 uM after 4 days. The format is functional, cell-based.
Series [10] relates to PC-12. Nature of the series: Enhancement of NGF-induced neurite outgrowth in rat PC12 cells assessed as morphological changes at 0.1 to 50 uM after 4 days by phase-contrast microscopy. It counts as functional, cell-based.
Series [11] relates to PC-12. Nature of the series: Cytotoxicity against rat PC12 cells at 50 uM. Conditions: pc-12, 50 µM. It counts as cell-based.

Activity calls are given as the source filed them. The calls are words filed in the database; no cut-off is given here.

`CC1=CCC[C@@H]2[C@@](C)(CCc3ccoc3)[C@H](C)[C@H](O)[C@H](O)[C@@]12C`: the Activity in the series with PC-12 [1] is 115.8 um; in the series on PC-12 [2], 104 um; in the series with PC-12 [3], 173.1 um; in the series with PC-12 [4], 201.5 um; in the series on PC-12 [5], “Dose-dependent effect”; in the series on PC-12 [6] it was “Dose-dependent effect”. The Activity with PC-12 [7] is reported as 205.3 um. For the same compound, the result in the series with PC-12 [8] was inactive.

In the case of `CC1=CCC[C@@H]2[C@@](C)(CCc3ccoc3)[C@H](C)[C@@H]3OC(C)(C)O[C@@H]3[C@@]12C`, the result in the series with PC-12 [9] was inactive.

Turning to `COC1C=C(CC[C@@]2(C)[C@H](C)[C@H](O)[C@H](O)[C@@]3(C)C(C)=CCC[C@H]23)C(=O)O1` (some centres not stated), the result in the series on PC-12 [10], in the series with PC-12 [8] and in the series on PC-12 [9] was inactive.

As for `CC1=CCC[C@@H]2[C@@](C)(CCC3=CC(=O)OC3)[C@H](C)[C@H](O)C[C@@]12C`, the result in the series on PC-12 [10], in the series with PC-12 [8] and in the series with PC-12 [9] was inactive.

With `CC1=CCC[C@@H]2[C@@](CO)(CCc3ccoc3)[C@H](C)[C@H](O)C[C@@]12C`, the Activity in the series on PC-12 [1] is 101.7 um; in the series with PC-12 [2], 95.3 um; with PC-12 [3], 106.5 um; in the series on PC-12 [4], 236.3 um; with PC-12 [5], “Dose-dependent effect”; in the series with PC-12 [11], “Toxic”. The outcome with PC-12 [8] was inactive.
